We go through five compounds from patent publication US6479517B1, “Phosphorous-containing benzothiophenes” (Eli Lilly and Company, priority 1995, dated 2002).

The subject of series [1] is ovariectomized rats. Description: Uterine weight in ovariectomized rat post-menopausal model (4-day dosing). In kind it is in vivo. The following applies: for Uterine Weight (% increase vs. OVX): OVX Sprague Dawley rats, oral, daily for 4 days. On the procedure: (§1) In the examples illustrating the methods, a post-menopausal model was used in which effects of different treatments upon circulating lipids were determined.
(§2) Seventy-five day old female Sprague Dawley rats (weight range of 200 to 225g) were obtained from Charles River Laboratories (Portage, Mich.). The animals were either bilaterally ovariectomized (OVX) or exposed to a Sham surgical procedure at Charles River Laboratories, and then shipped after one week. Upon arrival, they were housed in metal hanging cages in groups of 3 or 4 per cage and had ad libitum access to food (calcium content approximately 0.5%) and water for one week. Room temperature was maintained at 22.20°±1.7° C. with a minimum relative humidity of 40%. The photoperiod in the room was 12 hours light and 12 hours dark.
(§3) Dosing Regimen Tissue Collection. After a one week acclimation period (therefore, two weeks post-OVX) daily dosing with test compound was initiated. 17α-ethynyl estradiol or the test compound were given orally, unless otherwise stated, as a suspension in 1% carboxymethylcellulose or dissolved in 20% cyclodextrin. Animals were dosed daily for 4 days. Following the dosing regimen, animals were weighed and anesthetized with a ketamine: xylazine (2:1, V:V) mixture and a blood sample was collected by cardiac puncture. The animals were then sacrificed by asphyxiation with CO2, the uterus was removed through a midline incision, and a wet uterine weight was determined.

Series [2] has as its system ovariectomized rats. Description: Serum cholesterol in ovariectomized rat post-menopausal model. In kind it is in vivo. To be noted: OVX Sprague Dawley rats, oral, daily for 4 days. As for the experimental part:
as §1, §2, §3
Cholesterol Analysis. Blood samples were allowed to clot at room temperature for 2 hours, and serum was obtained following centrifugation for 10 minutes at 3000 rpm. Serum cholesterol was determined using a Boehringer Mannheim Diagnostics high performance cholesterol assay. Briefly the cholesterol was oxidized to cholest-4-en-3-one and hydrogen peroxide. The hydrogen peroxide was then reacted with phenol and 4-aminophenazone in the presence of peroxidase to produce a p-quinone imine dye, which was read spectrophotemetrically at 500 nm. Cholesterol concentration was then calculated against a standard curve. The entire assay was automated using a Biomek Automated Workstation.

The subject of series [3] is Uterine Eosinophil Peroxidase (EPO). Description: Uterine Eosinophil Peroxidase (EPO) Assay. In kind it is in vivo, rat.
From the text: as §2, §3
Uterine Eosinophil Peroxidase (EPO) Assay. Uteri were kept at 4° C. until time of enzymatic analysis. The uteri were then homogenized in 50 volumes of 50 mM Tris buffer (pH—8.0) containing 0.005% Triton X-100. Upon addition of 0.01% hydrogen peroxide and 10 mM O-phenylenediamine (final concentrations) in Tris buffer, increase in absorbance was monitored for one minute at 450 nm. The presence of eosonophils in the uterus is an indication of estrogenic activity of a compound. The maximal velocity of a 15 second interval was determined over the initial, linear portion of the reaction curve.

For series [4] the test system is unchanged. The series can be described thus: Uterine Eosinophil Peroxidase (EPO) Assay. The following applies: stromal layer of ovariectomized rats. In kind it is in vivo, rat.
Series [5] concerns MCF-7 breast adenocarcinoma cells. The series can be described thus: MCF-7 Proliferation Assay. In kind it is cell-based. The following applies: Homo sapiens, MCF7; MCF-7 cells, 48 hours with drug, 4 hours thymidine pulse; read-out: IC50 (MCF-7 proliferation, tritiated thymidine). As for the experimental part: MCF-7 breast adenocarcinoma cells (ATCC HTB 22) were maintained in MEM (minimal essential medium, phenol red-free, Sigma, St. Louis, Mo.) supplimented with 10% fetal bovine serum (FBS) (V/V), L-glutamine (2 mM), sodium pyruvate (1 mM), HEPES {(N-[2-hydroxyethyl]piperazine-N′-[2-ethanesulfonic acid]10 mM}, non-essential amino acids and bovine insulin (1 ug/mL) (maintenance medium). Ten days prior to assay, MCF-7 cells were switched to maintenance medium supplemented with 10% dextran coated charcoal stripped fetal bovine serum (DCC-FBS) assay medium) in place of 10% FBS to deplete internal stores of steroids. MCF-7 cells were removed from maintenance flasks using cell dissociation medium (Ca++/Mg++ free HBSS (phenol red-free) supplemented with 10 mM HEPES and 2 mM EDTA). Cells were washed twice with assay medium and adjusted to 80,000 cells/ML. Approximately 100 μL (8,000 cells) were added to flat-bottom microculture wells (Costar 3596) and incubated at 37° C. in a 5% CO2 humidified incubator for 48 hours to allow for cell adherence and equilibration after transfer. Serial dilutions of drugs or DMSO as a diluent control were prepared in assay medium and 50 μL transferred to triplicate microcultures followed by 50 μL assay medium for a final volume of 200 μL. After an additional 48 hours at 37° C. in a 5% CO2 humidified incubator, microcultures were pulsed with tritiated thymidine (1 uCi/well) for 4 hours. Cultures were terminated by freezing at −70° C. for 24 hours followed by thawing and harvesting of microcultures using a Skatron Semiautomatic Cell Harvester. Samples were counted by liquid scintillation using a Wallac BetaPlace β counter. Results in Table 2 below show the ED50 for certain compounds of the present invention.

Where [6] appears, read: OVX Sprague Dawley rats, oral, daily for 4 days, dose 0.1 mg/kg.
[7] abbreviates: OVX Sprague Dawley rats, oral, daily for 4 days, dose 0.01 mg/kg.
The mark [8] stands for this setting: OVX Sprague Dawley rats, oral, daily for 4 days, dose 1.0 mg/kg.

As to `C#C[C@]1(O)CC[C@H]2[C@@H]3CCc4cc(O)ccc4[C@H]3CC[C@@]21C` [EE2, 17α-ethynyl estradiol, reference compound], the “Uterine Weight (% increase vs. OVX)” value in the series on ovariectomized rats [1] (dose 0.1 mg/kg) was 171.5%. In addition, the “Effect on uterine weight (in words)” value with ovariectomized rats [1] (compared to ovariectomized test animals, EE2 orally at 0.1 mg/kg/day) is “substantially greater than the uterine weight of ovariectomized test animals”. For the same compound, the “Serum Cholesterol (% decrease vs. OVX)” value in the series on ovariectomized rats [2] (dose 0.1 mg/kg) came to 85.9%. Further, in series [3] (setting [6]), the “Uterine EPO (V. max)” value was 109.3. Besides, the “Eosinophil infiltration into the uterus (in words)” value in series [4] is given as “substantial, expected increase in eosinophil infiltration”.
Turning to `CCOP(=O)(OCC)Oc1ccc(-c2sc3cc(OP(=O)(OCC)OCC)ccc3c2C(=O)c2ccc(OCCN3CCCCC3)cc2)cc1.Cl` [Example 1], the “Uterine Weight (% increase vs. OVX)” value in the series on ovariectomized rats [1] (dose 0.01 mg/kg) came to 51.5%; in the series with ovariectomized rats [1] (dose 0.1 mg/kg) it was 25.2%; in the series on ovariectomized rats [1] (dose 1.0 mg/kg) it was 37.0%. For the same compound, in series [5], the IC50 is 1 nM. Also, the “Serum Cholesterol (% decrease vs. OVX)” value worked out at 24.3% in the series on ovariectomized rats [2] (dose 0.01 mg/kg), 41.1% in the series with ovariectomized rats [2] (dose 0.1 mg/kg) and 17.4% in the series on ovariectomized rats [2] (dose 1.0 mg/kg). Besides, the “Uterine EPO (V. max)” value in series [3] (setting [7]) is reported as 0.68; in series [3] (setting [6]), 6.5; in series [3] (setting [8]) it was 5.8.
Turning to `Cl.O=C(c1ccc(OCCN2CCCCC2)cc1)c1c(-c2ccc(OP(=O)(Oc3ccccc3)Oc3ccccc3)cc2)sc2cc(OP(=O)(Oc3ccccc3)Oc3ccccc3)ccc12` [Example 2], the “Uterine Weight (% increase vs. OVX)” value is 17.4% in the series on ovariectomized rats [1] (dose 0.01 mg/kg), 12.4% in the series on ovariectomized rats [1] (dose 0.1 mg/kg) and 31.4% with ovariectomized rats [1] (dose 1.0 mg/kg). Also, the IC50 in series [5] amounted to 10 nM. Also, the “Serum Cholesterol (% decrease vs. OVX)” value is −48.2% with ovariectomized rats [2] (dose 0.01 mg/kg), 15.6% with ovariectomized rats [2] (dose 0.1 mg/kg) and 55.2% in the series with ovariectomized rats [2] (dose 1.0 mg/kg). Moreover, the “Uterine EPO (V. max)” value is reported as 4 in series [3] (setting [7]), 9.8 in series [3] (setting [6]) and 5.6 in series [3] (setting [8]).
For `Cl.O=C(c1ccc(OCCN2CCCCC2)cc1)c1c(-c2ccc(OP(=O)(c3ccccc3)c3ccccc3)cc2)sc2cc(OP(=O)(c3ccccc3)c3ccccc3)ccc12` [Example 3], the “Uterine Weight (% increase vs. OVX)” value in the series with ovariectomized rats [1] (dose 0.01 mg/kg) is given as 22.5%; in the series with ovariectomized rats [1] (dose 0.1 mg/kg), 47.1%; with ovariectomized rats [1] (dose 1.0 mg/kg), 24.7%. Besides, the IC50 in series [5] was 1 nM. Moreover, the “Serum Cholesterol (% decrease vs. OVX)” value was −25% in the series on ovariectomized rats [2] (dose 0.01 mg/kg), 37.6% in the series with ovariectomized rats [2] (dose 0.1 mg/kg) and 57.5% in the series on ovariectomized rats [2] (dose 1.0 mg/kg). In addition, the results for the “Uterine EPO (V. max)” value in series [3] (setting [7]), in series [3] (setting [6]) and in series [3] (setting [8]) were 3.7, 7 and 6.7, respectively.
Consider `Cl.O=C(c1ccc(OCCN2CCCCC2)cc1)c1c(-c2ccc(O)cc2)sc2cc(O)ccc12` [Raloxifene, 6-hydroxy-2-(4-hydroxyphenyl)-3-[4-(2-piperidinoethoxy)benzoyl]benzo[b]thiophene, hydrochloride, reference compound], for which the “Serum Cholesterol (% decrease vs. OVX)” value in the series on ovariectomized rats [2] (dose 0.01 mg/kg) was 65%; in the series with ovariectomized rats [2] (dose 0.1 mg/kg) it was 75.6%; in the series on ovariectomized rats [2] (dose 1.0 mg/kg), 71.1%. Moreover, the “Uterine EPO (V. max)” value in series [3] (rat, in vivo, po, 0.01 mg/kg) is 2.2; in series [3] (rat, in vivo, po, 0.1 mg/kg), 4.3; in series [3] (rat, in vivo, po, 1 mg/kg), 3.9.
